ChEMBL document CHEMBL1201862, “PubChem BioAssay data set” (2004)
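Dose response: 5 concentrations. Exposure: 48 h. Format: 96-well plates. Endpoint: linear interpolation; highest concentration if not reached. The concentration for 50% growth inhibition is given as GI50.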 Active and inactive are the calls of the source. Rule as the data show it: active = GI50 up to about 1.1 µM and inactive = higher.

Columns and labels:
Assay in all cases: growth of human tumour cells (NCI), 48 h
[1] = test system: HOP-62
[2] = test system: SR
[3] = test system: SF-295
[4] = test system: NCI-H226
[5] = test system: IGROV-1
[6] = test system: SF-539
[7] = test system: HOP-92
[8] = test system: MOLT-4
[9] = test system: MDA-MB-231
[10] = test system: OVCAR-5
[11] = test system: OVCAR-8
[12] = test system: SF-268
[13] = test system: HT-29
[14] = test system: UACC-257
[15] = test system: OVCAR-4
[16] = test system: SNB-75
[17] = test system: M14
[18] = test system: SN12C
[19] = test system: BT-549
[20] = test system: MDA-N

Row | Compound | GI50 [1] | GI50 [2] | GI50 [3] | GI50 [4] | GI50 [5] | GI50 [6] | GI50 [7] | GI50 [8] | GI50 [9] | GI50 [10] | GI50 [11] | GI50 [12] | GI50 [13] | GI50 [14] | GI50 [15] | GI50 [16] | GI50 [17] | GI50 [18] | GI50 [19] | GI50 [20]
1 | COc1ccc2c(c1)CCC(CN1CCN(CCOC(c3ccc(F)cc3)c3ccc(F)cc3)CC1)C2O (stereo not given) | 16.1 µM (inactive) | 6.28 µM (inactive) | 17.9 µM (inactive) | 16 µM (inactive) | 13.8 µM (inactive) | 30.3 µM (inactive) | 12.2 µM (inactive) | 10.5 µM (inactive) | 13.6 µM (inactive) | 15.2 µM (inactive) | 13.8 µM (inactive) | 13.9 µM (inactive) | 5.09 µM (inactive) | 12.9 µM (inactive) | 14.2 µM (inactive) | 16.8 µM (inactive) | 12.2 µM (inactive) | 17.3 µM (inactive) | 14.4 µM (inactive) | 15.6 µM (inactive)
2 | Nc1ccc(S(=O)(=O)Nc2nccs2)cc1 [SULFATHIAZOLE] | > 100 µM (inactive) | > 100 µM (inactive) | > 100 µM (inactive) | > 100 µM (inactive) | > 100 µM (inactive) | > 100 µM (inactive) | 0.0101 µM (active) | > 100 µM (inactive) | > 100 µM (inactive) | > 100 µM (inactive) | > 100 µM (inactive) | > 100 µM (inactive) | > 100 µM (inactive) | > 100 µM (inactive) | > 100 µM (inactive) | 17 µM (inactive) | > 100 µM (inactive) | > 100 µM (inactive) | > 100 µM (inactive) | > 100 µM (inactive)
3 | Cc1nc(N)nc2ccccc12 | > 100 µM (inactive) | > 100 µM (inactive) | > 100 µM (inactive) | 0.172 µM (active) | > 100 µM (inactive) | > 100 µM (inactive) | > 100 µM (inactive) | > 100 µM (inactive) | > 100 µM (inactive) | > 100 µM (inactive) | > 100 µM (inactive) | > 100 µM (inactive) | > 100 µM (inactive) | > 100 µM (inactive) | > 100 µM (inactive) | 60 µM (inactive) | > 100 µM (inactive) | > 100 µM (inactive) | > 100 µM (inactive) | > 100 µM (inactive)
4 | Nc1nc(Cl)cc(NCC2(CO)CC(c3ccccc3)C2)n1 (stereo not given) | > 100 µM (inactive) | 7.59 µM (inactive) | > 100 µM (inactive) | 37.7 µM (inactive) | > 100 µM (inactive) | > 100 µM (inactive) | 22.3 µM (inactive) | 19.8 µM (inactive) | 26.4 µM (inactive) | > 100 µM (inactive) | 34.7 µM (inactive) | 94.4 µM (inactive) | 30 µM (inactive) | 20.5 µM (inactive) | 24.4 µM (inactive) | 18.1 µM (inactive) | 34.6 µM (inactive) | 13.8 µM (inactive) | 29.3 µM (inactive) | 31 µM (inactive)
5 | O=C1NC2(CN3CCC2CC3)C(=O)N1CN(Cc1ccccc1)c1ccccc1 (stereo not given) | > 100 µM (inactive) | 25.3 µM (inactive) | > 100 µM (inactive) | > 100 µM (inactive) | > 100 µM (inactive) | 93.8 µM (inactive) | > 100 µM (inactive) | 68.7 µM (inactive) | > 100 µM (inactive) | > 100 µM (inactive) | 57 µM (inactive) | 37.6 µM (inactive) | 56.6 µM (inactive) | 46 µM (inactive) | > 100 µM (inactive) | > 100 µM (inactive) | 33.7 µM (inactive) | 71 µM (inactive) | > 100 µM (inactive) | > 100 µM (inactive)
6 | Nc1ncnc2nn(C3OC(CO)C(O)C3O)nc12 (stereo not given) | 14 µM (inactive) | 2.99 µM (inactive) | 22 µM (inactive) | 5.36 µM (inactive) | 4.12 µM (inactive) | 21.8 µM (inactive) | 20 µM (inactive) | 15.1 µM (inactive) | 3.75 µM (inactive) | 9.06 µM (inactive) | 8.11 µM (inactive) | 20.4 µM (inactive) | 8.81 µM (inactive) | 23.2 µM (inactive) | 28 µM (inactive) | 9.77 µM (inactive) | 6.82 µM (inactive) | 8.02 µM (inactive) | 24.2 µM (inactive) | 10.3 µM (inactive)
